Values quoted from earlier work as cited in Sander's compilation of Henry's law constants (doi:10.1093/bja/45.3.294).

Experiments:
[1] = Henry solubility constant Hcp at 298.15 K (mol/(m3 Pa)); settings: reference: Allott et al. (1973); cited value
[2] = Henry solubility constant Hcp at 310 K (mol/(m3 Pa)); settings: reference: Allott et al. (1973); cited value

SMILES	Henry solubility constant Hcp [1]	Henry solubility constant Hcp at 310 K [2]
FC(Br)C(F)(F)F (stereo not given) [1-bromo-1,2,2,2-tetrafluoroethane]	0.00017	
FC(F)OC(Cl)C(F)(F)F (stereo not given) [1-chloro-2,2,2-trifluoroethyl difluoromethyl ether]		0.00024
FC(F)OC(F)(F)C(F)Cl (stereo not given) [2-chloro-1,1,2-trifluoroethyl difluoromethyl ether]		0.0003
C1CC1 [cyclopropane]	0.00011	
CCOCC [diethyl ether]	0.0096	
[N-]=[N+]=O [dinitrogen monoxide]	0.00025	
C=COC=C [divinyl ether]		0.00054
ClC=C(Cl)Cl [trichloroethene]	0.0011	

Continued, in another order:

Henry solubility constant Hcp [1]	SMILES	Henry solubility constant Hcp at 310 K [2]
0.00053	FC(F)(F)C(Cl)Br (stereo not given) [1-bromo-1-chloro-2,2,2-trifluoroethane]	
0.003	COC(F)(F)C(Cl)Cl [2,2-dichloro-1,1-difluoro-1-methoxyethane]	
0.00055	C=COCC(F)(F)F [(2,2,2-trifluoroethoxy)-ethene]	
0.00073	CCCl [chloroethane]	
4.6e-05	C=C [ethene]	
2.5e-05	[Kr] [krypton]	
4.5e-05	[Xe] [xenon]	
